{
  "source": "patent US20240075050A1",
  "about": "“Methods and Compositions for Treating Leucine Rich Repeat Kinase 2 (LRRK2)-Associated Disorder or Condition” (University of Connecticut, priority 2022, published 2024)",
  "key": {"[1]": {"test_system": "mouse primary cortical neurons", "test": "Primary neuronal viability assay, LRRK2-induced neuronal toxicity", "assay_type": "cell-based", "details": "1 mM AICAr", "experimental": "Primary neuronal cultures and viability assay. Primary cortical neuronal cultures were prepared from embryonic day 15-16 CD1 fetal mice (Charles River)^1. Briefly, cortices were dissected and dissociated by Trypsin (Invitrogen). The cells were seeded into 24-well plates pre-coated with poly-L-ornithine (Sigma) and were maintained in Neurobasal medium (Gibco) supplemented with B27 supplement (Gibco) and L-glutamine. The glial cells were inhibited by adding 5-fluoro-20-deoxyuridine (5F2DU, 30 μM, Sigma) at days in vitro (DIV) 4. To assess ATIC in LRRK2-induced toxicity, neurons were first infected with lentiviruses of ATIC-shRNA #6 or control-shRNA at DIV 3, and MYC-LRRK2, […] were co-transfected at a plasmid ratio of 10:1 into neurons at DIV 5 using Lipofectamine 2000 reagent (Invitrogen). […] Fixed cells are washed with PBS, permeabilized and blocked for 1 hour with PBS containing 5% goat serum and 0.3% Triton X-100, then detected with rabbit anti-GFP antibody followed by AlexaFluor-488 anti-rabbit IgG antibody. […] For each independent experiment, the percent viability of GFP-positive neurons (n>100) was determined and normalized to the control neurons transfected with pEGFP-N1 plus pcDNA3.1 empty vector."}, "[2]": {"test_system": "DA neurons in substantia nigra pars compacta", "test": "LPS-induced DA neurodegeneration in mice, TH-positive neurons in SNpc", "assay_type": "in vivo, mouse", "details": "21 days", "experimental": "Stereotaxic intracranial injection. Three days before survival surgery, osmotic pumps (ALZET, 1004) were filled with saline, 1 mg/ml or 30 mg/ml AICAr in saline, assembled with brain infusion kits (ALZET, Brain Infusion Kit 2), and incubated in saline at 37° C. 3-month-old mice were anesthetized by isoflurane gas supplemented with 0.5 L/min oxygen. A ˜1.5 cm incision was made midline on the scalp. For mouse striatum injection, one hole was drilled at the following coordinates: anterioposterior=+0.5 mm from bregma; lateral=−2.0 mm from bregma; dorsoventral=−3.5 mm. For mouse substantia nigra pars compacta (SNpc) injection, one hole was drilled at the following coordinates: anterioposterior=−3.2 mm from bregma; lateral=−1.2 mm from bregma; dorsoventral=−4.2 mm. 1 ul LPS (5 ug) or PBS was injected at a rate of 0.2 ul/min using a Hamilton syringe with a 26-gauge blunt needle. […]\nImmunohistochemistry. […] After antigen retrieval with 10 mM sodium citrate (pH 6.0) and 0.05% Tween-20 at 37° C. for 30 minutes, brain sections were washed in PBS for three times, permeabilized with 0.3% Triton X-100 in PBS, blocked with 10% goat serum in PBS, incubated with anti-tyrosine hydroxylase (TH) antibody overnight at 4° C., and then detected with Biotin-SP goat anti-rabbit IgG antibody at room temperature for 2 hours. […]\nStereological cell counting. […] Total cells were counted from 8 serial sections per animal."}},
  "data": [
    {"molecule": "NC(=O)c1ncn([C@@H]2O[C@H](CO)[C@@H](O)[C@H]2O)c1N", "note": "[AICAr, 5-aminoimidazole-4-carboxamide riboside]", "values": [
      {"measurement": "LRRK2 GS mutant induced neuronal toxicity", "setting": "[1]; mouse primary neurons transfected with MYC-LRRK2 G2019S and eGFP", "value": "significantly rescued"},
      {"measurement": "overexpression of LRRK2-WT induced neuronal toxicity", "setting": "[1]; mouse primary neurons transfected with MYC-LRRK2 WT and eGFP", "value": "significantly rescued"},
      {"measurement": "LPS-induced neurodegeneration", "setting": "[2]; LRRK2 KO mice, AICAr 2.4 μg/day/animal into SNpc", "value": "did not significantly rescue"},
      {"measurement": "LPS-induced DA neurodegeneration", "setting": "[2]; WT mice, AICAr 2.4 μg/day/animal into SNpc by osmotic pumps", "value": "significantly reduced"}
    ]}
  ]
}
